Reference: patent US20110212199A1, “AGENT FOR TREATING EYE DISEASES” (priority 2003, published 2011)

Tests used:
Format in all cases: in vivo, human
[1] = system: pigmentary retinal degeneration; test: Example 45: pigmentary retinal degeneration; details: person; 60 mg/l included in cyclodextrin, 1 drop (50 μl) twice a day for 3 months
[2] = system: primary open angle glaucoma; test: Example 56: primary open angle glaucoma; details: person; 10 mg/l in 2-hydroxypropyl-β-cyclodextrin and γ-cyclodextrin, 1 drop (50 μl) twice a day for a half year
Description: It can be confirmed that administration of raloxifen with eye drops is effective for the treatment of primary open angle glaucoma.

corneal erosion (KSD) = test: Example 36: corneal erosion; details: person; cyclodextrin-included eye drops of Example 32(1), 1 drop (50 μl) twice a day for 3 days
myopia = test: Example 37: myopia; details: 21 days; before 0.9
cataract [3] = test: Example 38: cataract; details: 49 days
open-angle glaucoma [4] = test: Example 39: open-angle glaucoma
Description: It can be confirmed that it is effective for treatment of high tension glaucoma to lower intraocular pressure.

[5] = system: Posner-Schlossmans' Syndrome (glaucoma); test: Example 40: Posner-Schlossmans' Syndrome; details: thereafter 100 mg/l eye drops, 1 drop (50 μl) once a day for 3 months
Description: Thereafter, 1 drop (50 μl) of eye drops containing trans-resveratrol (100 mg/l) included in cyclodextrin prepared in Example 32(1) was administered once a day for 3 months, then no attack occurred for 3 months or more.

open-angle glaucoma [6] = test: Example 41: open-angle glaucoma; details: person; 100 mg/l, 1 drop (50 μl) once a day for 14 days
Description: It can be confirmed that administration of trans-resveratrol to eye is effective for treatment of high tension glaucoma.

normal tension glaucoma = test: Example 42: normal tension glaucoma; details: person; 100 mg/l, 1 drop (50 μl) once a day for 33 days
Description: It can be confirmed that administration of trans-resveratrol to eyes is effective for treatment of normal tension glaucoma.

[7] = system: central retinal vein occlusion; test: Example 57: central retinal vein occlusion; details: person; 100 mg/l, 1 drop (50 μl) twice a day for 112 days
Description: It can be confirmed that administration of trans-resveratrol with eye drops is effective for the treatment of central retinal vein occlusion.

glaucoma = test: Example 58: glaucoma; details: person; 100 mg/l, 1 drop (50 μl) twice a day for 3 months
Description: It can be confirmed that administration of trans-resveratrol with eye drops is effective for the treatment of glaucoma.

iridocyclitis = test: Example 60: iridocyclitis; details: person, right eye; 100 mg/l, 1 drop (50 μl) twice a day for 10 days
Description: It can be confirmed that administration of trans-resveratrol is effective for the treatment of iridocyclitis.

[8] = system: dry eye and ischemic optic neuropathy; test: Example 61: dry eye and ischemic optic neuropathy
Description: It can be confirmed that administration of trans-resveratrol is effective for the treatment of dry eye and ischemic optic neuropathy.

cataract [9] = test: Example 62: cataract; details: person, right eye; 100 mg/l, 1 drop (50 μl) twice a day for 67 days

Structure (SMILES)	visual field [1]	visual fields by OCTOPUS 1-2-3 static perimeter [2]	corneal erosion symptom (corneal erosion (KSD))	visual acuity Vs (myopia)	cataract opacity, slit lamp microscope (cataract [3])	corrected visual acuity Vs (cataract [3]; before 1.2)	intraocular pressure ToS (open-angle glaucoma [4]; 98 days, before 22) [mmHg]	intraocular pressure ToD (open-angle glaucoma [4]; person, 100 mg/l, 1 drop (50 μl) twice a day for 98 days, before 21) [mmHG]	period without attack [5] [months]	visual field, left eye (open-angle glaucoma [6])	visual fields (normal tension glaucoma)	chorioretinal hemorrhage, left eye [7]	visual fields by OCTOPUS 1-2-3 static perimeter (glaucoma)	iridocyclitis outcome (iridocyclitis)	ischemic optic neuropathy ([8]; 46 days)	lacrimation and dry eye ([8]; person, 100 mg/l, 1 drop (50 μl) twice a day for 46 days)	opacity of cataract (cataract [9])
O=C(c1ccc(OCCN2CCCCC2)cc1)c1c(-c2ccc(O)cc2)sc2cc(O)ccc12 [raloxifene]	visual field was improved	the visual fields were improved	–	–	–	–	–	–	–	–	–	–	–	–	–	–	–
Oc1ccc(/C=C/c2cc(O)cc(O)c2)cc1 [trans-resveratrol]	–	–	the symptom was lightened	1.2	cataract opacity was lightened	1.5	13	14	≥ 3	visual field was improved	visual fields were improved	chorioretinal hemorrhage was disappeared	the visual fields were improved	iridocyclitis was cured	ischemic optic neuropath was improved	lacrimation was increased, dry eye was cured	opacity of cataract was reduced
